Measurements as given in paper PMC11206519, “Multi-Endpoint Toxicological Assessment of Chrysin Loaded Oil-in-Water Emulsion System in Different Biological Models” (Nanomaterials, 2024).

System: D. melanogaster trans-heterozygous mwh+/+flr3 larvae of the ST cross
Assay: SMART wing spot test, anti-mutagenicity, ST cross
Method: The somatic mutation and recombination test, or the wing spot test, using D. melanogaster was employed as an in vivo system to assess the mutagenicity and anti-mutagenicity of chrysin-ES. Two different crosses were conducted: (i) a standard cross (ST) and (ii) a high bioactivation cross (HB). The standard cross larvae were obtained from virgin female of flr3/TM3, Ser crossed with males of mwh/mwh, while the HB cross larvae expressing cytochrome P450 enzymes involved in xenobiotic biotransformation were obtained from virgin females of ORR/ORR; flr^3/In (3LR) TM3, ri p^psep l (3)89Aa bx^34e e Bd^s crossed with males of mwh/mwh. The flies were cultured at a constant temperature of 25 ± 1 °C and 60–70% RH at photoperiod 12:12 (light/dark). To evaluate the mutagenicity of chrysin and chrysin-ES, a hundred larva F1 progenies derived from the above crossing were fed with instant Drosophila medium (Formula 4-24®), Carolina, Burlington, NC, USA) containing chrysin or chrysin-ES (20–120 µg/mL). DI was used as a negative control, while 20 mM urethane (URE) was used as a positive control. The larvae were reared on each medium until pupation at 25 °C. After that, forty wings of surviving flies in each group were collected for mutant analysis. The mutant spots on the wings, including small single spots, large single spots, and twin spots, were counted. The statistical significance was calculated as previously described by Frei and Würgler.
Furthermore, the anti-mutagenicity of the samples was performed by a similar procedure as mentioned above.

[1] = NMU (sodium nitrite 36 mM: methylurea 10 mM) + 20 μg/mL

Compound: O=c1cc(-c2ccccc2)oc2cc(O)cc(O)c12 [Chrysin, 5,7-dihydroxyflavone]
- Inhibitory Classification (MMC 0.05 mM + 80 μg/mL): Weak
- Mutant spots per individual (number of spots), Large Single (MMC 0.05 mM + 80 μg/mL): 1.63 (65)
- Mutant spots per individual (number of spots), Small Single (MMC 0.05 mM + 80 μg/mL): 4.48 (179)
- Mutant spots per individual (number of spots), Total (MMC 0.05 mM + 80 μg/mL): 6.83 (273)
- Mutant spots per individual (number of spots), Twin (MMC 0.05 mM + 80 μg/mL): 0.73 (29)
- Inhibition (%) (MMC 0.05 mM + 120 μg/mL): 77%
- Inhibitory Classification (MMC 0.05 mM + 120 μg/mL): Strong
- Mutant spots per individual (number of spots), Large Single (MMC 0.05 mM + 120 μg/mL): 0.58 (23)
- Mutant spots per individual (number of spots), Small Single (MMC 0.05 mM + 120 μg/mL): 1.50 (60)
- Mutant spots per individual (number of spots), Total (MMC 0.05 mM + 120 μg/mL): 2.25 (90)
- Mutant spots per individual (number of spots), Twin (MMC 0.05 mM + 120 μg/mL): 0.18 (7)
- Inhibition (%) (MMC 0.05 mM + 120 μg/mL, listed as chrysin): approximately 77%
- Inhibition (%) [1]: 89%
- Inhibitory Classification [1]: Strong
- Mutant spots per individual (number of spots), Large Single [1]: 0.03 (1)
- Mutant spots per individual (number of spots), Small Single [1]: 0.15 (6)
- Mutant spots per individual (number of spots), Total [1]: 0.23 (9)
- Mutant spots per individual (number of spots), Twin [1]: 0.05 (2)
- Inhibition (%) (NMU + 40 μg/mL): 91%
- Inhibitory Classification (NMU + 40 μg/mL): Strong
- Mutant spots per individual (number of spots), Large Single (NMU + 40 μg/mL): 0 (0)
- Mutant spots per individual (number of spots), Small Single (NMU + 40 μg/mL): 0.18 (7)
- Mutant spots per individual (number of spots), Total (NMU + 40 μg/mL): 0.18 (7)
- Mutant spots per individual (number of spots), Twin (NMU + 40 μg/mL): 0 (0)
- Inhibition (%) (NMU + 80 μg/mL): 91%
- Inhibitory Classification (NMU + 80 μg/mL): Strong
- Mutant spots per individual (number of spots), Large Single (NMU + 80 μg/mL): 0 (0)
- Mutant spots per individual (number of spots), Small Single (NMU + 80 μg/mL): 0.18 (7)
- Mutant spots per individual (number of spots), Total (NMU + 80 μg/mL): 0.18 (7)
- Mutant spots per individual (number of spots), Twin (NMU + 80 μg/mL): 0 (0)
- Inhibition (%) (NMU + 120 μg/mL): 90%
- Inhibitory Classification (NMU + 120 μg/mL): Strong
- Mutant spots per individual (number of spots), Large Single (NMU + 120 μg/mL): 0.08 (3)
- Mutant spots per individual (number of spots), Small Single (NMU + 120 μg/mL): 0.13 (5)
- Mutant spots per individual (number of spots), Total (NMU + 120 μg/mL): 0.20 (8)
- Mutant spots per individual (number of spots), Twin (NMU + 120 μg/mL): 0 (0)
- Inhibition (%) (URE 20 mM + 20 μg/mL): 94%
- Inhibitory Classification (URE 20 mM + 20 μg/mL): Strong
- Mutant spots per individual (number of spots), Large Single (URE 20 mM + 20 μg/mL): 0 (0)
- Mutant spots per individual (number of spots), Small Single (URE 20 mM + 20 μg/mL): 0.23 (9)
- Mutant spots per individual (number of spots), Total (URE 20 mM + 20 μg/mL): 0.23 (9)
- Mutant spots per individual (number of spots), Twin (URE 20 mM + 20 μg/mL): 0 (0)
- Inhibition (%) (URE 20 mM + 40 μg/mL): 91%
- Inhibitory Classification (URE 20 mM + 40 μg/mL): Strong
- Mutant spots per individual (number of spots), Large Single (URE 20 mM + 40 μg/mL): 0.03 (1)
- Mutant spots per individual (number of spots), Small Single (URE 20 mM + 40 μg/mL): 0.33 (13)
- Mutant spots per individual (number of spots), Total (URE 20 mM + 40 μg/mL): 0.35 (14)
- Mutant spots per individual (number of spots), Twin (URE 20 mM + 40 μg/mL): 0 (0)
- Inhibition (%) (URE 20 mM + 80 μg/mL): 91%
- Inhibitory Classification (URE 20 mM + 80 μg/mL): Strong
- Mutant spots per individual (number of spots), Large Single (URE 20 mM + 80 μg/mL): 0 (0)
- Mutant spots per individual (number of spots), Small Single (URE 20 mM + 80 μg/mL): 0.35 (14)
- Mutant spots per individual (number of spots), Total (URE 20 mM + 80 μg/mL): 0.35 (14)
- Mutant spots per individual (number of spots), Twin (URE 20 mM + 80 μg/mL): 0 (0)
- Inhibition (%) (URE 20 mM + 120 μg/mL): 86%
- Inhibitory Classification (URE 20 mM + 120 μg/mL): Strong
- Mutant spots per individual (number of spots), Large Single (URE 20 mM + 120 μg/mL): 0.03 (1)
- Mutant spots per individual (number of spots), Small Single (URE 20 mM + 120 μg/mL): 0.55 (22)
- Mutant spots per individual (number of spots), Total (URE 20 mM + 120 μg/mL): 0.56 (23)
- Mutant spots per individual (number of spots), Twin (URE 20 mM + 120 μg/mL): 0 (0)
